Values quoted from earlier work in US20020122815A1, “Compositions and methods of carbohydrate dosing” (priority 2001, published 2002).

Key:
serum glucose levels [1] = conditions: compared with glucose or sucrose
[2] = in large amounts
serum glucose levels [3] = conditions: serum glucose response to 50 g carbohydrate as percentage of standard meal (usually 50 g glucose)

Compound	rise in serum glucose (serum glucose levels [1])	adverse effect [2]	Glycemic Index (serum glucose levels [3])
OC[C@@H](O)[C@@H](O)[C@H](O)[C@@H](O)CO [sorbitol]	less of a rise in serum glucose than glucose or sucrose	may cause diarrhea	–
O=C(CO)[C@@H](O)[C@H](O)[C@H](O)CO [fructose]	–	–	23
OC[C@H]1O[C@@](CO)(O[C@H]2O[C@H](CO)[C@@H](O)[C@H](O)[C@H]2O)[C@@H](O)[C@@H]1O [sucrose]	–	–	60-65
OC[C@@H](O)[C@@H](O)[C@H](O)[C@H](O)CO [Mannitol]	less of a rise in serum glucose than glucose or sucrose	may cause diarrhea	–
